Measurements as given in patent US20170112182A1 (Next Generation Labs, LLC, priority 2015, published 2017).

Experiments:
[1] = vaping study with 10 subjects rating throat feel and head feel dynamics; type: in vivo, human
Source text: In rating the head feel dynamics and throat feel of the different compositions, the subjects used the following criteria: […]

α4β2 nAChRs = α4β2 nAChRs (Homo sapiens, UniProt P17787+P43681); type: cell-based
α7 nAChRs = α7 nAChRs (Homo sapiens, UniProt P36544); type: cell-based
Chain of α7 nAChRs (P36544 23-502): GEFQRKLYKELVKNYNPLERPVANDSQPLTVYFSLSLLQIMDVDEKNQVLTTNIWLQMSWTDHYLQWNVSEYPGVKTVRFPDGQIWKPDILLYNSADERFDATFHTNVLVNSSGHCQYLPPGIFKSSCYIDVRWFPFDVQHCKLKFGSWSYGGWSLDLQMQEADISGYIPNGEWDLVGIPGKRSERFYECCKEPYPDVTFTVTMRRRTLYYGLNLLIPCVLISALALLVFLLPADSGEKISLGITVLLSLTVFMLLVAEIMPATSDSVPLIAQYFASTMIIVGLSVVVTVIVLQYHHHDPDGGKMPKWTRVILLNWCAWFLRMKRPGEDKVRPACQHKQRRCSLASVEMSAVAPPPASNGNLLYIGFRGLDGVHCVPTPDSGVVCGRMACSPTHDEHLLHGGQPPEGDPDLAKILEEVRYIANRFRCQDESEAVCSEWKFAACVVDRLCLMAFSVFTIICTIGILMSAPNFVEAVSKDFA

Chain of α4β2 nAChRs (P43681 29-627 limits assumed): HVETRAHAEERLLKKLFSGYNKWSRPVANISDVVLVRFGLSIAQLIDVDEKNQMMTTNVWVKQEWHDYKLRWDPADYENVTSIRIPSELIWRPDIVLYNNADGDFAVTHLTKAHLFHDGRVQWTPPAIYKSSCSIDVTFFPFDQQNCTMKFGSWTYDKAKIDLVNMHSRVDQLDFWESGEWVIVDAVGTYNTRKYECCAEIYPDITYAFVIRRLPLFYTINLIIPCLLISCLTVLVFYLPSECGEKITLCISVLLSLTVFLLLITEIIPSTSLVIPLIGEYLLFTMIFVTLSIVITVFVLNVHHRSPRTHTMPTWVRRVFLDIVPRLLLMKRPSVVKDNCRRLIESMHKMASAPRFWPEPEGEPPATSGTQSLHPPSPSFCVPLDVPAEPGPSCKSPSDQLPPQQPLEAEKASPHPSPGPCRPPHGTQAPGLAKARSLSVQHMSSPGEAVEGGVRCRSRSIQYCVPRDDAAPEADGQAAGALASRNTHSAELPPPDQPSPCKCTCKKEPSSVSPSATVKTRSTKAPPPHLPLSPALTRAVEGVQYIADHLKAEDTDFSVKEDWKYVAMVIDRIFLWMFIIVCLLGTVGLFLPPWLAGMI
Chain of α4β2 nAChRs (P17787 26-502): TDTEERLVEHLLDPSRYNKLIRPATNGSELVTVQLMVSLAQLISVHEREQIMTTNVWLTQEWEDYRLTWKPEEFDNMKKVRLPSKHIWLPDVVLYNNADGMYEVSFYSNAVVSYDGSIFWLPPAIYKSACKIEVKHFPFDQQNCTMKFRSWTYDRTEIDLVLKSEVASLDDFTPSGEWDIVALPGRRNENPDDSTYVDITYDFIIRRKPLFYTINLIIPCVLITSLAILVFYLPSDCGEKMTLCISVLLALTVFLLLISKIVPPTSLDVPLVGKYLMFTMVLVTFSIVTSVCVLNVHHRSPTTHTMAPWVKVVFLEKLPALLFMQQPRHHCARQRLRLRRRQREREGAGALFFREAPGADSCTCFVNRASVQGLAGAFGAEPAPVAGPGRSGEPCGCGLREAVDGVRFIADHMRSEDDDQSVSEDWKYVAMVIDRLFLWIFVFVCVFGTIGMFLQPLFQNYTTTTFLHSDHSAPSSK

SMILES	Head Feel Dynamics compared with tobacco-derived counterpart ([1]; 0.3% loading level)	Head Feel Dynamics compared with tobacco-derived counterpart ([1]; 0.6% loading level)	agonist character in words (α4β2 nAChRs)	agonist character in words (α7 nAChRs)
CN1CCCC1c1cccnc1 (racemic) [Synthetic RS racemic nicotine, RS-Nicotine]	slightly less effect	slightly less effect	–	–
CN1CCC[C@@H]1c1cccnc1 [Synthetic R nicotine, R nicotine]	–	–	partial agonist	full, weak agonist
CN1CCC[C@H]1c1cccnc1 [Synthetic S nicotine, S-nicotine]	same (within experimental error)	same (within experimental error)	–	–
